Source: ChEMBL document CHEMBL5625237 (Eur J Med Chem, 2023)
pEC50, pIC50: −log10 of the molar value.

Assays:
[1] = target: T1, Replicase polyprotein 1ab (Severe acute respiratory syndrome coronavirus 2, UniProt P0DTD1); assay: (§1) Inhibition of recombinant full length his tagged C-terminal SARS-CoV 2 main protease (M1 to Q307 residues) expressed in Escherichia coli BL21 (DE3) cells using LGSAVLQ-Rh110-dP as peptide substrate preincubated for 1 hr followed by substrate addition and measured after 24 hrs by fluorescence based analysis
[2] = Cytotoxicity against human Calu-3 cells measured after 2 days by MTT assay; type: toxicity, cell-based; conditions: time 2 day
SARS-CoV-2 [3] = assay: Antiviral activity against SARS CoV-2 (hCoV-19/Korea/KCDC06/2020) infected in human Calu-3 cells pre-infected with virus followed by compound addition and measured after 2 days post infection; type: functional, organism-based; conditions: Severe acute respiratory syndrome coronavirus 2, hCoV-19/Korea/KCDC06/2020, Calu-3, 48 h
[4] = target: Replicase polyprotein 1ab (Severe acute respiratory syndrome coronavirus 2) (UniProt P0DTD1); assay: as §1, with “peptide substrate at 10 uM preincubated for” for “peptide substrate preincubated for”, “based analysis relative to control” for “based analysis”; conditions: time 25.0 hrs
[5] = Selectivity index, ratio of CC50 for human Calu-3 cells to EC50 for SARS CoV-2 (hCoV-19/Korea/KCDC06/2020) infected in human Calu-3 cells; type: toxicity, cell-based; conditions: read-out: Ratio CC50/EC50
[6] = target: T1, Replicase polyprotein 1ab; assay: Inhibition of recombinant full length SARS-CoV-2 main protease expressed in Escherichia coli preincubated for 10 mins followed by substrate addition and measured every 30 secs for 10 mins
SARS-CoV-2 [7] = assay: Antiviral activity against SARS-CoV-2 (nCoV-2019BetaCoV/Wuhan/WIV04/2019) infected in african green monkey Vero E6 cells preincubated with compound for 1 hr followed by viral infection for 2 hrs and measured after 24 hrs post infection by real time PCR analysis; type: functional, organism-based; conditions: Severe acute respiratory syndrome coronavirus 2, nCoV-2019BetaCoV/Wuhan/WIV04/2019, Vero C1008
SARS-CoV-2 [8] = assay: microbe, parasite or virus in culture; conditions: Severe acute respiratory syndrome coronavirus 2, USA/NYU-VC-003/2020, A549-ACE2

SMILES | pIC50 [1] | further results
O=C(NCCCNC(=O)n1cc(F)c(=O)[nH]c1=O)c1cc2ccccc2n1Cc1ccccc1 | 5.29 | 
Cc1cn(C(=O)NCCCNC(=O)c2cc3cc(F)ccc3n2CC(C)C)c(=O)[nH]c1=O | 6.15 | CC50 at 48 h [2]: > 100 µM
CC(C)Cn1c(C(=O)NCCCNC(=O)n2cc(F)c(=O)[nH]c2=O)cc2cc(OC(F)(F)F)ccc21 | 5.60 | 
CCCCCCNC(=O)n1cc(C(F)(F)F)c(=O)[nH]c1=O | 5.13 | 
COc1ccc2c(c1)cc(C(=O)NCCCNC(=O)n1cc(F)c(=O)[nH]c1=O)n2CC(C)C | 5.85 | 
CCCCCCNC(=O)n1cc(F)c(=O)[nH]c1=O [CARMOFUR] |  | pEC50 (SARS-CoV-2 [3]): < 4.00; CC50 at 48 h [2]: > 100 µM
O=C(c1ccc2cc[nH]c2c1)N1CCC(CCCNC(=O)n2cc(F)c(=O)[nH]c2=O)CC1 | 5.51 | 
CCCCCCNC(=O)n1cc(CC)c(=O)[nH]c1=O | 5.21 | 
O=C(NCCCCC1CCCCC1)n1cc(F)c(=O)[nH]c1=O |  | inhibition [4]: 31%
CCCCCCNC(=O)n1cc(C)c(=O)[nH]c1=O | 5.12 | 
CC(C)Cn1c(C(=O)NCCCNC(=O)n2cc(F)c(=O)[nH]c2=O)cc2ccccc21 | 6.01 | 
O=C(NCCCC1CCCCC1)n1cc(F)c(=O)[nH]c1=O | 5.48 | 
CC(C)Cn1c(C(=O)NCCCNC(=O)n2cc(F)c(=O)[nH]c2=O)cc2cc(F)ccc21 | 6.43 | pEC50 (SARS-CoV-2 [3]): 4.54; selectivity ratio [5]: 3.3; CC50 at 48 h [2]: 98 µM
Cc1cn(C(=O)NCCCNC(=O)c2cc3cc(Cl)ccc3n2CC(C)C)c(=O)[nH]c1=O | 5.89 | CC50 at 48 h [2]: > 100 µM
O=C(NCCCCCCc1ccccc1)n1cc(F)c(=O)[nH]c1=O | 5.42 | 
O=C(NCCCCc1ccccc1)n1cc(F)c(=O)[nH]c1=O | 5.41 | 
CCC(CC)COC(=O)[C@H](C)N[P@](=O)(OC[C@H]1O[C@@](C#N)(c2ccc3c(N)ncnn23)[C@H](O)[C@@H]1O)Oc1ccccc1 |  | pEC50 (SARS-CoV-2 [3]): 6.24; selectivity ratio [5]: > 172; CC50 at 48 h [2]: > 100 µM
O=C(CC1CCCCC1)N1CCC(CCCNC(=O)n2cc(F)c(=O)[nH]c2=O)CC1 | 5.35 | pIC50 [6]: 7.40; pEC50 (SARS-CoV-2 [7]): 6.14
CC(C)Cn1c(C(=O)NCCCNC(=O)n2ccc(=O)[nH]c2=O)cc2cc(Cl)ccc21 | 5.80 | CC50 at 48 h [2]: > 100 µM
CC(C)Cn1c(C(=O)NCCCNC(=O)n2cc(F)c(=O)[nH]c2=O)cc2cc(Cl)ccc21 | 6.46 | pEC50 (SARS-CoV-2 [3]): 4.74; selectivity ratio [5]: > 5.5; CC50 at 48 h [2]: > 100 µM

SMILES | pIC50 [1] | further results
O=C(NCCC1CCCC1)n1cc(F)c(=O)[nH]c1=O | 5.34 | pEC50 (SARS-CoV-2 [3]): 4.31; selectivity ratio [5]: > 2; CC50 at 48 h [2]: > 100 µM
Cc1ccc2c(c1)cc(C(=O)NCCCNC(=O)n1cc(F)c(=O)[nH]c1=O)n2CC(C)C | 5.92 | 
CC(C)(C)CC(=O)N1CCC(CCCNC(=O)n2cc(F)c(=O)[nH]c2=O)CC1 | 5.77 | pEC50 (SARS-CoV-2 [3]): 4.92; selectivity ratio [5]: 8.3; pIC50 [6]: 7.28; CC50 at 48 h [2]: 99 µM; pEC50 (SARS-CoV-2 [7]): 6.28
CCn1c(C(=O)NCCCNC(=O)n2cc(F)c(=O)[nH]c2=O)cc2ccccc21 | 5.72 | 
O=C(NCCCNC(=O)n1cc(F)c(=O)[nH]c1=O)c1ccc2cc[nH]c2c1 | 5.62 | 
O=C(Cc1ccccc1)N1CCC(CCCNC(=O)n2cc(F)c(=O)[nH]c2=O)CC1 | 5.41 | 
Cn1ccc2ccc(C(=O)NCCCNC(=O)n3cc(F)c(=O)[nH]c3=O)cc21 | 5.42 | 
Cn1c(C(=O)NCCCNC(=O)n2cc(F)c(=O)[nH]c2=O)cc2ccccc21 | 5.82 | 
CCCCCCNC(=O)n1ccc(=O)[nH]c1=O | 5.01 | 
O=C(NCCCNC(=O)n1cc(F)c(=O)[nH]c1=O)c1cc2ccccc2[nH]1 | 5.59 | 
CC(C)(C)OC(=O)N1CCC(CCCNC(=O)n2cc(F)c(=O)[nH]c2=O)CC1 | 5.47 | 
COc1cccc2[nH]c(C(=O)N[C@@H](CC(C)C)C(=O)N[C@@H](C[C@@H]3CCNC3=O)C(=O)CO)cc12 [PF-00835231] |  | pEC50 (SARS-CoV-2 [8]): 6.66
O=C(NCCC1CCCCC1)n1cc(F)c(=O)[nH]c1=O | 5.31 | 
O=C(NCCCC1CCNCC1)n1cc(F)c(=O)[nH]c1=O |  | inhibition [4]: 19%
O=C(NCCCc1ccccc1)n1cc(F)c(=O)[nH]c1=O |  | inhibition [4]: 27%
CC(C)Cn1c(C(=O)NCCCNC(=O)n2cc(F)c(=O)[nH]c2=O)cc2cc(C(F)(F)F)ccc21 | 6.10 | 
CC(C)Cn1c(C(=O)NCCCNC(=O)n2ccc(=O)[nH]c2=O)cc2cc(F)ccc21 | 6.24 | CC50 at 48 h [2]: > 100 µM
CCCCCCNC(=O)n1cc(Br)c(=O)[nH]c1=O | 5.13 | 
CCCCCCNC(=O)n1cc(Cl)c(=O)[nH]c1=O | 5.26 | 
CC(C)C[C@H](CNC(=O)c1cc2ccccc2[nH]1)CNC(=O)n1cc(F)c(=O)[nH]c1=O | 5.36 | 
